{"source": "patent US20100184852A1", "about": "“ORGANIC COMPOUNDS FOR TREATMENT OF DISORDERS CONNECTED TO IMPAIRED NEUROTRANSMISSION” (priority 2006, published 2010)", "key": {"[1]": {"molecular_target": "T1, Monoamine oxidase B (MAO-B) (Homo sapiens, UniProt P27338)", "T1 sequence (P27338 1-520)": "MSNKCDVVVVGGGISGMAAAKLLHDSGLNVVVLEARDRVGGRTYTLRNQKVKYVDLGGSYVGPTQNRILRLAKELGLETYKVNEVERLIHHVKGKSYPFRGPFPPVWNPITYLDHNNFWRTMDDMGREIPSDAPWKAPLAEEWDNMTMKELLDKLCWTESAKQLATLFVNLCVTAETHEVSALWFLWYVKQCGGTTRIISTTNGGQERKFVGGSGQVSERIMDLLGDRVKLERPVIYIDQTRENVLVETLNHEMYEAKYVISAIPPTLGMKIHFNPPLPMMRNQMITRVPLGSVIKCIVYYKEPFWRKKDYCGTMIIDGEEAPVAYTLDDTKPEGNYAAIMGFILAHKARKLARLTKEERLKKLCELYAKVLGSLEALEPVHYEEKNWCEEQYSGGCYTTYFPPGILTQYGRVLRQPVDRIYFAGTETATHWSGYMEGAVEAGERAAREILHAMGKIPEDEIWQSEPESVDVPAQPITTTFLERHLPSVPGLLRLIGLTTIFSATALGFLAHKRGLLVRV", "assay": "Monoaminooxidase B inhibition (H2O2/vanillic acid/HRP readout)", "type": "biochemical", "settings": "substrate benzylamine 0.5 mM; +/− s.e.m.; read-out: IC50 [μM] for Inhibition of MAO-B", "experimental": "(§1) The organic amines p-tyramine or benzylamine were used as substrates for the Monoamine oxidase A (MAO-A) and B (MAO-B) enzymes respectively. The H2O2 produced by this reaction was quantified by reaction with vanillic acid, catalysed by horse radish peroxidase (HRP).\n(§2) The reactions were carried out in polystyrene microtitre plates. The MAO enzymes (final concentration 2 U/ml) were mixed with either p-tyramine (Sigma, final concentration 0.5 mM) or benzylamine (Sigma, final concentration 0.5 mM) as appropriate and the chromogenic solution (containing vanillic acid (Fluka), 4-aminoantipyrine (Fluka) and horse radish peroxidase (Sigma), final concentrations 0.25 mM, 0.125 mM and 1 U/ml respectively) in 0.2 M potassium phosphate buffer pH 7.6. The reactions were followed in a microtitre plate absorbance reader eg Spectramax M5 (Molecular Devices Corporation). Absorbance readings at 495 nm were taken every 15 seconds for 40 minutes and the initial reaction velocities calculated by linear regression using SOFTmaxPro (Molecular Devices Corporation).\n(§3) The effect of ligustilide, 3-butylphthalide, senkyunolide C and cnidilide on the monoamine oxidase enzymes was determined by their inclusion in the assay at a range of concentrations between 0.03 and 100 μM for 10 minutes prior to and during the incubation with substrate. To determine the effect of the compounds on the HRP catalyzed portion of the reaction, the MAO enzyme was replaced by H2O2 (Molecular Probes, final concentration 0.2 mM). The reactions containing MAO-A and MAO-B were both inhibited by […] according to formula I in a dose dependent manner, whilst the control reaction, was unaffected. The measured IC50 values for inhibition of monoamine oxidase activity by ligustilide, 3-butylphthalide, senkyunolide C and enidilide, respectively, are shown in Table 3."}, "[2]": {"molecular_target": "T2, human serotonin re-uptake transporter (hSERT) (Homo sapiens, UniProt P31645)", "T2 construct": "host or cells: HEK-293", "T2 sequence (P31645 whole entry)": "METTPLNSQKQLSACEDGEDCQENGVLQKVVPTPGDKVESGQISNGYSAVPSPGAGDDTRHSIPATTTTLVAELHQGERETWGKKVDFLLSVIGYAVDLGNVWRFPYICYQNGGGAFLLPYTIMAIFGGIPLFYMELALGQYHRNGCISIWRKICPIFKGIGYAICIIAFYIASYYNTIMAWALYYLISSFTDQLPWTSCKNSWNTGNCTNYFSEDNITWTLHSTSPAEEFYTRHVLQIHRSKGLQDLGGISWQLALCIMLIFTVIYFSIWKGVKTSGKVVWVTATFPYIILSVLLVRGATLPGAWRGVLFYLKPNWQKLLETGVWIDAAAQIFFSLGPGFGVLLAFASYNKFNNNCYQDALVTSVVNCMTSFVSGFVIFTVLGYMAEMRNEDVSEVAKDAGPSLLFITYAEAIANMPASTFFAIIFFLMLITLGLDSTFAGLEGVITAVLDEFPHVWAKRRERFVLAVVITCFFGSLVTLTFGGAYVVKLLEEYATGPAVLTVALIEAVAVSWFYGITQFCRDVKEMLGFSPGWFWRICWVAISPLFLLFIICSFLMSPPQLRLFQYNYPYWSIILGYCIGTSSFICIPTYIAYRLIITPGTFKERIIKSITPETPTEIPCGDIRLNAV", "assay": "Serotonin uptake inhibition in HEK-293 cells expressing hSERT", "type": "cell-based", "settings": "transfected HEK-293 cells; 20 nM (3H) serotonin, 30 minutes; average +/− s.e.m.; read-out: IC50 for tritiated serotonin uptake", "experimental": "HEK-293 cells stably expressing the human serotonin re-uptake transporter (hSERT) were obtained from R. Blakely, Vanderbilt University, USA. The cells were routinely grown in Dulbeco's Modified Eagles Medium, purchased from Bioconcept, Allschwil, Switzerland containing 10% fetal calf serum, penicillin, streptomycin, L-glutamine and the antibiotic G418 and passaged by trypsinisation. One day prior to the assay cells were seeded in the above mentioned medium. Immediately prior to the assay the medium was replaced by Krebs Ringers bicarbonate buffer, purchased from Sigma Chemicals Ltd., supplemented with 35 μM pargyline, 2.2 mM CaCl2, 1 mM ascorbic acid and 5 mM N-2-hydroxyethylpiperazine-N′-2-ethanesulfonic acid (buffer called “Hepes”). Serotonin uptake into the cells was determined by addition of radio-labeled (3H) serotonin (Amersham Biosciences GE Healthcare, Slough, UK) to a concentration of 20 nM, and incubation for 30 minutes at room temperature. Following removal of unincorporated label by gentle washing three times with the above buffer, incorporated serotonin was quantified by liquid scintillation counting.\nThe effect of the compounds of formula I on the serotonin uptake was determined by its inclusion in the assay at a range of concentrations between 0.03 and 100 μM for 10 minutes prior to and during the addition of (3H) serotonin/citalopram. Serotonin uptake via the transporter was inhibited by ligustilide, 3-butylphthalide, senkyunolide A, senkyunolide C, senkyunolide B, and cnidilide, respectively, in a dose dependent manner, with IC50 values as shown in Table 2."}, "[3]": {"molecular_target": "T3, Monoamine oxidase A (MAO-A) (Homo sapiens, UniProt P21397)", "T3 sequence (P21397 1-527)": "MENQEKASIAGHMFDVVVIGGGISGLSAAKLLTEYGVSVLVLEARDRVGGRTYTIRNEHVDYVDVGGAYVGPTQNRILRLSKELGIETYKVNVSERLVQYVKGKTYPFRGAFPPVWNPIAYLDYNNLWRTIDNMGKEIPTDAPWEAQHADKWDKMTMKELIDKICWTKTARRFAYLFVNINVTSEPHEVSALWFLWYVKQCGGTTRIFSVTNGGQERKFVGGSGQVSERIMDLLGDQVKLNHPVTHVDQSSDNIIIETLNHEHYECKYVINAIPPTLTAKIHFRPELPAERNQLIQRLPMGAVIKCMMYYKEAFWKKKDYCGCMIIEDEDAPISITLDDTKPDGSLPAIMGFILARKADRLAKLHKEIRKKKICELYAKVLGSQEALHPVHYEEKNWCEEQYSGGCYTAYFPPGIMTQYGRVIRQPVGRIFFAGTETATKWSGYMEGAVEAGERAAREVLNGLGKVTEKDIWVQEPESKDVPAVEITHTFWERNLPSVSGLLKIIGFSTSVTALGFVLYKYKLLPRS", "assay": "Monoaminooxidase A inhibition (H2O2/vanillic acid/HRP readout)", "type": "biochemical", "settings": "substrate p-tyramine 0.5 mM; +/− s.e.m.; read-out: IC50 [μM] for Inhibition of MAO-A", "experimental": "as §1, §2, §3"}, "mice": {"test_system": "mice", "assay": "Marble burying test", "type": "in vivo, mouse", "settings": "10 mg/kg p.o., −24, −5, −1 h", "experimental": "A celery seed oil extract rich in phthalides was tested in the marble burying test. A crude extract from celery seed oil (Apium graveolens) obtained by supercritical CO2 fluid extraction of the seed was bought from Guanzhou Honsea Sunshine Bio Science & Technology, Guangzhou, 510620, Peopole's Republic of China. This extract (66.15 g) was distilled for about 2 hours in a ca. 30 cm Kugelrohr at a temperature of 125° C., under a pressure of 0.02 mbar. The distillate contained 18.12% butylphthalide, 0.87% butylidenphthalide, 35.37% senkyanolide, 20.99% sedanolide, 2.23% C16-fatty acid and 3.14% oleic acid, based on the total weight of the celery seed oil extract.\nThe marble burying test was performed in Type II cages (16×22 cm), which were filled with normal rodent bedding material, up to a depth of 4 cm, and the bedding was flattened gently by hand to ensure an even surface. […]\nAt the start of the test, mice were individually placed into the test cages and left to explore for 30 min. At the end of the test, the mice were removed from the cages and the number of marbles which have been buried (i.e. at least ⅔ covered with bedding) were counted. […]\nCelery seed oil extract was evaluated after sub-chronic oral administration at 50, 100, 200, 300 mg/kg with fluoxetine at 10 mg/kg as reference substance and corn oil as vehicle. […]"}}}
{"molecule": "CCCC[C@@H]1OC(=O)[C@@H]2C=CCC[C@H]12", "note": "[Cnidilide]", "values": [{"measurement": "IC50", "setting": "[1]", "value": 109, "unit": "µM"}, {"measurement": "IC50", "setting": "[2]", "value": 40.5, "unit": "µM"}, {"measurement": "IC50", "setting": "[3]", "value": "> 100", "unit": "µM"}]}
{"molecule": "CNCCC(Oc1ccc(C(F)(F)F)cc1)c1ccccc1", "note": "(stereo not drawn) [Fluoxetine]", "values": [{"measurement": "% MARBLES BURIED", "setting": "mice", "value": "−78", "unit": "%"}]}
{"molecule": "CCCC[C@@H]1OC(=O)C2=C1CCC=C2", "note": "[Senkyunolide A]", "values": [{"measurement": "IC50", "setting": "[2]", "value": 32.5, "unit": "µM"}]}
{"molecule": "CCC/C=C1\\OC(=O)c2c(O)cccc21", "note": "[Senkyunolide B]", "values": [{"measurement": "IC50", "setting": "[2]", "value": 75, "unit": "µM"}]}
{"molecule": "CCC/C=C1\\OC(=O)c2ccc(O)cc21", "note": "[Senkyunolide C]", "values": [{"measurement": "IC50", "setting": "[1]", "value": 2.14, "unit": "µM"}, {"measurement": "IC50", "setting": "[2]", "value": 31.4, "unit": "µM"}, {"measurement": "IC50", "setting": "[3]", "value": 2.72, "unit": "µM"}]}
